PMC7155171, “Probing the Open Global Health Chemical Diversity Library for Multistage-Active Starting Points for Next-Generation Antimalarials” (ACS Infectious Diseases, 2020)
Read-outs that look alike come from different tables or passages of the source.

Assays:
Format in all cases: cell-based, Plasmodium falciparum
[1] = system: P. falciparum Dd2 (PfLuc) line expressing firefly luciferase, asexual blood stage; assay: microbe, parasite or virus in culture; details: Plasmodium falciparum
P. falciparum Dd2 = assay: SYBR green I asexual blood stage proliferation assay (96 h); details: Plasmodium falciparum, DD2, 11-pt dose response, 96hr
[2] = system: P. falciparum (NF54) stage V gametocytes; assay: Stage V gametocyte viability assay (MitoTracker Red CMXRos high content imaging); details: for inhibition at 2 µM: read-out: Stg V Gam primary screen: Inhibition % (2uM) (n=2)
[3] = DD2, read-out: CDD P. falciparum Luciferase ABS 11-pt Reconfirmation Dose Response (48hr): IC50 (μM), 11-pt dose response, 48hr
[4] = DD2, 8-pt dose response, 96hr, read-out: CDD P. falciparum Luciferase ABS 8-pt Reconfirmation Dose Response (96hr): IC50
[5] = DD2, 8-pt dose response, 96hr, read-out: CDD P. falciparum Luciferase ABS 8-pt Reconfirmation Dose Response (96hr): Maximum inhibition (%)
[6] = DD2, 11-pt dose response, 96hr, read-out: CDD P. falciparum Luciferase ABS 11-pt Reconfirmation Dose Response (96hr): IC50
[7] = DD2, 11-pt dose response, 96hr, read-out: CDD P. falciparum Luciferase ABS 11-pt Reconfirmation Dose Response (96hr): Maximum inhibition (%)
[8] = Sybr Green I, read-out: CDD P. falciparum Sybr Green I ABS 11-pt Reconfirmation Dose Response (96hr): IC50
[9] = Sybr Green I, read-out: CDD P. falciparum Sybr Green I ABS 11-pt Reconfirmation Dose Response (96hr): Maximum inhibition (%)
[10] = Plasmodium falciparum, NF54, 72 h, read-out: Stg V Gam dose response IC50 (µM) (n=3), 10-point dose response, n=3, 72 h
[11] = DD2, 11-pt dose response, 48hr, read-out: CDD P. falciparum Luciferase ABS 11-pt Reconfirmation Dose Response (48hr): Maximum inhibition (%)
[12] = Plasmodium falciparum, NF54, 72 h
[13] = Plasmodium falciparum, NF54, 72 h, read-out: GAM V IC50, stage V gametocytes, 72 h
[14] = DD2, read-out: P. falciparum Luciferase ABS 11-pt Reconfirmation Dose Response (48hr): IC50, 11-pt dose response, 48hr
[15] = DD2, 8-pt dose response, 96hr, read-out: P. falciparum Luciferase ABS 8-pt Reconfirmation Dose Response (96hr): IC50
[16] = DD2, 8-pt dose response, 96hr, read-out: P. falciparum Luciferase ABS 8-pt Reconfirmation Dose Response (96hr): Maximum inhibition (%)
[17] = DD2, 11-pt dose response, 48hr, read-out: P. falciparum Luciferase ABS 11-pt Reconfirmation Dose Response (48hr): Maximum inhibition (%)
[18] = DD2, 11-pt dose response, 96hr, read-out: P. falciparum Luciferase ABS 11-pt Reconfirmation Dose Response (96hr): IC50
[19] = DD2, 11-pt dose response, 96hr, read-out: P. falciparum Luciferase ABS 11-pt Reconfirmation Dose Response (96hr): Maximum inhibition (%)
[20] = read-out: P. falciparum Sybr Green I ABS 11-pt Reconfirmation Dose Response (96hr): IC50
[21] = read-out: P. falciparum Sybr Green I ABS 11-pt Reconfirmation Dose Response (96hr): Maximum inhibition (%)

NC(=O)c1cccc2nc([C@H]3CCN(Cc4ccccn4)C3)[nH]c12 [DDD01025389, NC(=O)C1=C2NC(=NC2=CC=C1)[C@H]1CCN(CC2=CC=CC=N2)C1]
IC50 [1, 3]: 0.058 µM
IC50 [1, 4]: 0.0339 µM
Emax [1, 5]: 98.4%
IC50 [1, 6]: 0.0101 µM
Emax [1, 7]: 101%
IC50 (P. falciparum Dd2; [8]): 80.7 nM
Emax (P. falciparum Dd2; [9]): 86.6%
IC50 [2, 10]: 0.125 µM

COc1ccc(NC(=O)Cn2nc(C)c(C(C)=O)c2C)cc1 [DDD01027600, COC1=CC=C(NC(=O)CN2N=C(C)C(C(C)=O)=C2C)C=C1]
IC50 [1, 3]: 1.9 µM
IC50 [1, 4]: 0.49 µM
Emax [1, 5]: 92.8%
Emax [1, 11]: 87%
IC50 [1, 6]: 1.45 µM
Emax [1, 7]: 92.8%
IC50 (P. falciparum Dd2; [8]): 4580 nM
IC50 [2, 10]: 3.74 µM
inhibition at 2 µM [2, 12]: 53.5%

COc1ccc(-c2c(C)nn3c(=N)c(C#N)n[nH]c23)cc1OC [DDD01035187, COC1=CC=C(C=C1OC)C1=C2N=NC(C#N)=C(N)N2N=C1C]
IC50 [1, 3]: 1.18 µM
IC50 [1, 4]: 0.57 µM
Emax [1, 5]: 93%
Emax [1, 11]: 95.8%
IC50 [1, 6]: 0.841 µM
Emax [1, 7]: 98.5%
IC50 (P. falciparum Dd2; [8]): 5980 nM
Emax (P. falciparum Dd2; [9]): 90.8%
IC50 [2, 10]: 8.2 µM
inhibition at 2 µM [2, 12]: 61.6%

Cc1cccc(CN2CCCC2c2cccc(Nc3nccs3)n2)c1 (stereo not drawn) [DDD01057018, CC1=CC=CC(CN2CCCC2C2=CC=CC(NC3=NC=CS3)=N2)=C1]
IC50 [1, 3]: 0.914 µM
IC50 [1, 4]: 1.04 µM
Emax [1, 5]: 94.6%
Emax [1, 11]: 93.5%
IC50 [1, 6]: 0.53 µM
Emax [1, 7]: 101%
IC50 [2, 13]: 0.12 µM
IC50 [2, 10]: 0.115 µM
inhibition at 2 µM [2, 12]: 90.4%

Cc1nn(C)cc1C1=NS(=O)(=O)N(C)C(C(=O)Nc2ccc(Br)cc2)=C1 [DDD01058697, CN1C=C(C(C)=N1)C1=NS(=O)(=O)N(C)C(=C1)C(=O)NC1=CC=C(Br)C=C1]
IC50 [1, 3]: 0.55 µM
IC50 [1, 4]: 0.2 µM
Emax [1, 5]: 95.2%
Emax [1, 11]: 99.4%
IC50 [1, 6]: 0.281 µM
Emax [1, 7]: 101%
IC50 (P. falciparum Dd2; [8]): 321 nM
Emax (P. falciparum Dd2; [9]): 99.9%
IC50 ([2]; Plasmodium falciparum, NF54, read-out: Stg V Gam dose response IC50 (µM) (n=3), 10-point dose response, n=3, 72 h): 2.78 µM
inhibition at 2 µM ([2]; Plasmodium falciparum, NF54, Table S6, 2uM, n=2, 72 h): 53.2%

COc1ccc(C)cc1CN1CCC(c2cc3ncccc3cn2)CC1 [DDD01058767, COC1=CC=C(C)C=C1CN1CCC(CC1)C1=NC=C2C=CC=NC2=C1]
IC50 [1, 3]: 0.0507 µM
IC50 [1, 4]: 0.25 µM
Emax [1, 5]: 96.3%
Emax [1, 11]: 98.5%
IC50 [1, 6]: 0.0439 µM
Emax [1, 7]: 100%
IC50 (P. falciparum Dd2; [8]): 136 nM
Emax (P. falciparum Dd2; [9]): 101%
IC50 [2, 10]: 2.51 µM
inhibition at 2 µM [2, 12]: 85.5%

CC(C)(C)c1cn2c(n1)C(CNCc1ccccn1)CCC2 (stereo not drawn) [DDD01062588, CC(C)(C)C1=CN2CCCC(CNCC3=CC=CC=N3)C2=N1]
IC50 [1, 14]: 2.9 µM
IC50 [1, 15]: 1.44 µM
Emax [1, 16]: 91.5%
Emax [1, 17]: 90.4%
IC50 [1, 18]: 1.41 µM
Emax [1, 19]: 98.6%
IC50 (P. falciparum Dd2; [20]): 1720 nM
Emax (P. falciparum Dd2; [21]): 87.3%
IC50 [2, 13]: 0.07 µM
IC50 [2, 10]: 0.069 µM
inhibition at 2 µM [2, 12]: 86.8%

Fc1cccc(C(NCc2ncc[nH]2)c2ccccn2)c1 (stereo not drawn) [DDD01064153, FC1=CC=CC(=C1)C(NCC1=NC=CN1)C1=CC=CC=N1]
IC50 [1, 3]: 5.61 µM
IC50 [1, 4]: 0.45 µM
Emax [1, 11]: 86.1%
IC50 [1, 6]: 0.644 µM
Emax [1, 7]: 97.4%
IC50 (P. falciparum Dd2; [8]): 5580 nM
Emax (P. falciparum Dd2; [9]): 82.6%
IC50 [2, 13]: 1.55 µM
IC50 [2, 10]: 1.55 µM
inhibition at 2 µM [2, 12]: 63.2%

Clc1cccc(C(NCc2ncc[nH]2)c2ccccn2)c1 (stereo not drawn) [DDD01064155, ClC1=CC=CC(=C1)C(NCC1=NC=CN1)C1=CC=CC=N1]
IC50 [1, 3]: 1.99 µM
IC50 [1, 4]: 0.27 µM
Emax [1, 5]: 94.2%
Emax [1, 11]: 94.1%
IC50 [1, 6]: 0.408 µM
Emax [1, 7]: 98.7%
IC50 (P. falciparum Dd2; [8]): 3750 nM
Emax (P. falciparum Dd2; [9]): 88.1%
IC50 [2, 13]: 2.06 µM
IC50 [2, 10]: 2.06 µM
inhibition at 2 µM [2, 12]: 59.1%

CN(CCc1cccc2ccccc12)Cc1nc(N)nc(N(C)C)n1 [DDD01076782, CN(CCC1=C2C=CC=CC2=CC=C1)CC1=NC(N)=NC(=N1)N(C)C]
IC50 [1, 15]: 1.67 µM
IC50 [2, 10]: 3.99 µM
inhibition at 2 µM [2, 12]: 74.3%

CNc1cc(C)nc(NC2CCCN(C3Cc4ccccc4C3)C2)n1 (stereo not drawn) [DDD01243506, CNC1=CC(C)=NC(NC2CCCN(C2)C2CC3=CC=CC=C3C2)=N1]
IC50 [1, 14]: 1.16 µM
IC50 [1, 15]: 1.33 µM
Emax [1, 17]: 94.3%
IC50 [1, 18]: 0.707 µM
Emax [1, 19]: 100%
IC50 (P. falciparum Dd2; [20]): 957 nM
Emax (P. falciparum Dd2; [21]): 96.1%
IC50 [2, 10]: 2.91 µM
inhibition at 2 µM [2, 12]: 62.9%

CN(Cc1ccsc1)c1nc(-c2ccccn2)nc2c1CCNCC2 [DDD01243664, CN(CC1=CSC=C1)C1=NC(=NC2=C1CCNCC2)C1=CC=CC=N1]
IC50 [1, 3]: 0.752 µM
IC50 [1, 4]: 0.52 µM
Emax [1, 5]: 95.1%
Emax [1, 11]: 89.8%
IC50 [1, 6]: 0.299 µM
Emax [1, 7]: 98.7%
IC50 ([1]; DD2, asexual blood stage, assay format not given, read-out: ABS IC50): < 1 µM
IC50 (P. falciparum Dd2; [8]): 872 nM
Emax (P. falciparum Dd2; [9]): 78.7%
IC50 [2, 13]: 0.73 µM
IC50 [2, 10]: 0.732 µM
inhibition at 2 µM [2, 12]: 95.1%
IC50 ([2]; read-out: GAM V IC50, stage V gametocytes, 72 h): < 1 µM

CSc1ccc(-c2nc(CN3CCC(CN)C3)c(C)o2)cc1 (stereo not drawn) [DDD01250168, CSC1=CC=C(C=C1)C1=NC(CN2CCC(CN)C2)=C(C)O1]
IC50 [1, 15]: 1.6 µM
Emax [1, 16]: 93.1%
IC50 [2, 10]: 2.42 µM
inhibition at 2 µM [2, 12]: 63%

CCN(CCN(C)C)c1nc(CCN)nc2sc(C)c(C)c12 [DDD01251823, CCN(CCN(C)C)C1=C2C(C)=C(C)SC2=NC(CCN)=N1]
IC50 [1, 15]: 1.8 µM
Emax [1, 16]: 92.8%
IC50 [2, 10]: 4.42 µM
inhibition at 2 µM [2, 12]: 58.8%

Cc1ccc(-c2nc(CNC(C)CCO)[nH]c2-c2ccccn2)cc1 (stereo not drawn) [DDD01253542, CC(CCO)NCC1=NC(=C(N1)C1=CC=C(C)C=C1)C1=CC=CC=N1]
IC50 [1, 15]: 1.81 µM
IC50 [2, 13]: 1.09 µM
IC50 [2, 10]: 1.09 µM
inhibition at 2 µM [2, 12]: 70.9%

Cc1cc(CN(C)c2nc(-c3ccccn3)nc3c2CCNCC3)n[nH]1 [DDD01255965, CN(CC1=CC(C)=NN1)C1=NC(=NC2=C1CCNCC2)C1=CC=CC=N1]
IC50 ([1]; 96 h incubation, Dd2 luciferase, read-out: 96 hour Pfluc IC50): > 10 µM
IC50 [2, 13]: 0.88 µM
IC50 [2, 10]: 0.875 µM
inhibition at 2 µM [2, 12]: 61.9%
